Assay results from patent US20180291070A1, “PEPTIDES, AND USES THEREOF” (priority 2015, published 2018).
Read-outs that look alike come from different tables or passages of the source. Ends that are not written are not given here.

What was measured:
E. coli ATCC 25922 = experiment: microbe, parasite or virus in culture; assay type: cell-based; settings: for zone of inhibition at 64 µg/mL: Escherichia coli, 10 μL at 64 μg/mL on disk, read-out: Inhibition zone diameter (mm)
Procedure: (§1) Blank disks were placed in the plates and 10 μL of each compound (at 64 μg/mL—maximum concentration tested) added.
(§2) After incubation period results were registered and plates photographed.

A. baumannii ATCC 19606 = experiment: antibacterial activity testing in solid media (disk, Mueller-Hinton plates); assay type: cell-based, Acinetobacter baumannii; design: key to Inhibition zone diameter (mm): NI—No Inhibition of growth; settings: for zone of inhibition at 64 µg/mL: Acinetobacter baumannii, read-out: Inhibition zone diameter (mm); for zone of inhibition at 64 µg/mL / Inhibition zone diameter (mm): 10 μL at 64 μg/mL on disk
Procedure: as §1, §2

MRSA ATCC 43300 = experiment: microbe, parasite or virus in culture; assay type: cell-based, Methicillin-Resistant Staphylococcus aureus; settings: for zone of inhibition at 64 µg/mL: Staphylococcus aureus, 10 μL at 64 μg/mL on disk, read-out: Inhibition zone diameter (mm)
Procedure: as §1, §2

TNF-α = TNF-α secretion by LPS-stimulated THP-1 differentiated macrophages (Biolegend ELISA); assay type: cell-based, human; settings: THP-1 differentiated macrophages treated 24 hrs. prior to LPS stimulation
Procedure: TNF-α is secreted by macrophages in response to stimulation by endotoxins such as lipopolysaccharides (LPS). TNF-α is thought to be involved in systemic inflammation and dysregulation of TNF-α production is thought to be involved in many diseases. The Biolegend assay is a sandwich ELISA kit that is designed for the accurate quantitation of human TNF-α from cell culture supernatant, serum or plasma.
THP-1 monocytes were seeded in a 96 well plate at 10,000 cells per well in RPMI containing 10% fetal calf serum (FCS), 1% Pen/strep, 1% L-glutamine, 100 nM PMA and allowed to differentiated for 72 h prior to experimentation.
Following differentiation the cells were incubated with 100 ng/ml, 10 ng/ml or 1 ng/ml synthetic peptide for 24 h respectively.
Following treatment the cells were stimulated with 10 ng/ml LPS for 5 h and the quantity of TNF-α in the supernatant determined using the Biolegend assay ELISA kit.
Results were calculated as a percentage of the untreated control. An increase in optical density reading indicates greater quantity of TNF-α release into cell culture supernatant.
All experiments were prepared in duplicate on three plates (6 wells/conditions). Significance was calculated using Students t-test (*p<0.05 compared to control, **p<0.01 compared to control, *** p<0.001 compared to control).

[1] = test system: elastic fibers of the dermis; experiment: morphometric quantification of elastic fibers in skin explants; assay type: cell-based, Human; settings: for Morphometric quantification of elastic fibers in the middle dermis (%) / Morphometric quantification of elastic fibers in the superficial dermis (%): applied twice per day, 5 μL per explant
Procedure: (§3) Skin explants were prepared from abdominal plastic surgery. Some explants were delipidated with alcohol to obtain a dehydrated skin.
(§4) These explants were maintained in maintenance medium supplied by the provider Biopredic International for 5 days. Test items are applied twice per day with 5 μL per explant.
(§5) For each time of analysis (D1 and D5), histologies on delipidated explants, treated explants with test items, the DMSO 0.3% control and water control, are performed.
(§6) After receipt in the laboratory, each skin explant in the maintenance medium is delipidated with 5 μL alcohol during 3 hours.
(§7) After 3 hours, all skin explants are treated two per day with test items, and they are incubated at 37° C.+/−2° C., 5% CO2 for 1 day or 5 days.
The immunohistochemical staining intensity in the elastic fibers is evaluated using a semi-quantitative histological score.
The percentage area taken up by elastic fibers in the dermis was calculated in the dermis and the average superficial dermis. Results are presents in Table 4, FIG. 2 and FIG. 3.

[2] = test system: keratinocytes of the basal layer of the epidermis; experiment: Ki67 immunohistochemistry (mitotic index) in skin explants; assay type: cell-based, Human; settings: for number of mitotic cells compared to EGF: day 1
Procedure: as §3, §4, §5, §6, §7
Epithelial proliferation was analyzed by immunohistochemistry using anti-Ki67 antibody. […] Counting the number of labeled cells (keratinocytes of the basal layer of the epidermis) is performed and provides the total number of basal cells to calculate the % of labeled cells.
The results of the immunohistochemical analysis of Ki67 are reported in Table 5 and expressed as % of labelled at the basal layer of the epidermis. The Error! […] Immunohistochemical analysis of mitotic activity is shown in annex 4 with a reminder of the average for each analysed conditions.

GLUT4 = experiment: GLUT4myc translocation in L6 myotubes; assay type: cell-based
From the text: We determined the effect of six synthetic peptides (SP1-6) and four peptide compositions on in vitro GLUT4 translocation using the L6 rat skeletal muscle cell line. A clone of the L6 cell line containing overexpression of GLUT4 tagged with a c-myc epitope (courtesy of Prof. Amira Klip, Hospital for Sick Children, Toronto) was used to investigate the efficacy of each synthetic peptide and peptide composition for effects on GLUT4 translocation in a dose-response design.
L6-GLUT4myc cells were grown in 10% FBS and 2 μg/ml blasticidin. Cells were grown for 48-72 hours before being seeded in 24-well plates at 15,000 cells per well in 2% FBS and allowed to differentiate for 6 to 8 days prior to experimentation.
L6-GLUT4myc cells were serum-starved for three hours prior to incubation with 100 nM of insulin for 30 mins, or 200, 20, 2.0 and 0.2 μM of SP, and 2, 1, 0.5 and 0.25 mg/ml of peptide composition for 3 hours respectively. A 3 hour incubation period was selected based on previous findings identifying that incubation with branch chain amino acid containing di-peptides for 3 hours increases glucose uptake in L6 myotubes 1. Treatments were staggered in order to determine GLUT4myc translocation at the same time point.
The quantity of myc-tagged GLUT4 at the cell surface was measured by antibody-coupled colorimetric assay. Briefly, after incubation with either insulin for 30 mins or synthetic peptide or peptide composition for 3 hours respectively, L6-GLUT4myc cells were fixed via incubation with 3% paraformaldehyde (PFA). A 0.1 M glycine solution was then added to quench PFA and cells were blocked with 5% goat serum. The myotube monolayer was exposed to anti-myc antibody and then incubated with peroxidase conjugated donkey anti-mouse IgG. 1 mL of o-phenylenediamine dihydrochloride (OPD) reagent was added to each well and this reaction was stopped by adding […] of 3 M HCL. To determine GLUT4 translocation to cell surface, a measured aliquot of each condition was determined spectrophotometrically on a plate reader using absorbance at 492 nm.
In addition to an untreated control, 100 nM insulin was utilised to stimulate a maximal GLUT4 translocation response i.e. a positive control in each experiment. […] Treatments were staggered so that all conditions (untreated, insulin and sample) were processed at the same time-point.

[3] = final result, not at the levels of susceptibility

Row | Molecule | Morphometric quantification of elastic fibers in the middle dermis (%) ([1]; D1) | Morphometric quantification of elastic fibers in the superficial dermis (%) ([1]; D1) | Morphometric quantification of elastic fibers in the middle dermis (%) ([1]; D5) | Morphometric quantification of elastic fibers in the superficial dermis (%) ([1]; D5) | % of Ki67 positive cells in the basal layer of the epidermis ([2]; D1) [%] | % of Ki67 positive cells in the basal layer of the epidermis ([2]; D5) [%] | other results
1 | O=C(O)c1cn(C2CC2)c2cc(N3CCNCC3)c(F)cc2c1=O [CIP, Ciprofloxacin] | – | – | – | – | – | – | zone of inhibition at 64 µg/mL (E. coli ATCC 25922; ATCC25922, Rep 1): 42 mm; zone of inhibition at 64 µg/mL (E. coli ATCC 25922; ATCC25922, Rep 2): 40 mm; zone of inhibition at 64 µg/mL (E. coli ATCC 25922; ATCC25922, Rep 3): 42 mm; zone of inhibition at 64 µg/mL (A. baumannii ATCC 19606; ATCC19606, Rep 1): 27 mm; zone of inhibition at 64 µg/mL (A. baumannii ATCC 19606; ATCC19606, Rep 2): 28 mm; zone of inhibition at 64 µg/mL (A. baumannii ATCC 19606; ATCC19606, Rep 3): 27 mm; zone of inhibition at 64 µg/mL (MRSA ATCC 43300; Rep 1): 27 mm; zone of inhibition at 64 µg/mL (MRSA ATCC 43300; Rep 2): 28 mm; zone of inhibition at 64 µg/mL (MRSA ATCC 43300; Rep 3): 29 mm
2 | DEHQKIHQFR [0723.08] | 3.52 | 2.7 | 7.27 | 5.32 | 27.83 | 5.72 | TNF-α secretion reduced vs. untreated cells (TNF-α): 80%; number of mitotic cells compared to EGF [2]: increase
3 | DTFYNAAWDPSNR [SP1, reference compound] | – | – | – | – | – | – | cell viability (GLUT4; 200 μM, L6-GLUT4myc cells): poor cell viability
4 | EDLRLVDLVIPVNGPGKFE [0723.06] | 4.54 | 3.8 | 8.67 | 4.03 | 31.97 | 5.04 | number of mitotic cells compared to EGF [2]: increase
5 | EGF (Epidermal Growth Factor): Epidermal Growth Factor, 10 ng/mL, comparison condition in the skin explant tests [reference compound] | 5.68 | 3.64 | 6.61 | 5.61 | 25.11 | 4.2 | –
6 | HGEWRPSYEKQEDEE [0723.03] | 4.9 | 3 | 9 | 11.68 | 22.01 | 10.04 | elastic fibers in the middle dermis compared to the water control ([1]; D5): increase; elastic fibers in the superficial dermis compared to control water ([1]; D5): increase by twice
7 | HPVAITASSNLNLLGFG [0723.02] | 11.75 | 6.09 | 9.08 | 7.59 | 19.61 | 6.73 | TNF-α secretion reduced vs. untreated cells (TNF-α): 80%; elastic fibers in the middle dermis compared to the water control ([1]; D5): increase; elastic fibers in the middle dermis compared to control water ([1]; day 1): increase doubled
8 | LNSQKFPILNLVQLSATR [I_87_SF] | – | – | – | – | – | – | inhibition zone (E. coli ATCC 25922; ATCC 25922): 9-10 mm; inhibitory activity (E. coli ATCC 25922; [3]): some inhibitory activity; Inhibition zone diameter (mm) (A. baumannii ATCC 19606; Rep 1): NI; Inhibition zone diameter (mm) (A. baumannii ATCC 19606; Rep 2): NI; Inhibition zone diameter (mm) (A. baumannii ATCC 19606; Rep 3): NI; inhibitory activity (A. baumannii ATCC 19606; final result): No activity; inhibition zone (MRSA ATCC 43300; agar plates): 18 mm; inhibitory activity (MRSA ATCC 43300; [3]): some inhibitory activity
9 | QQYGIAASPFLQSAA [0723.07] | 6.46 | 4 | 5.33 | 5.15 | 22.22 | 5.26 | –
10 | RHGEWRPSY [0723.01] | 7.59 | 4.45 | 10.17 | 10.21 | 18.57 | 3.92 | elastic fibers in the middle dermis compared to the water control ([1]; D5): increase; elastic fibers in the superficial dermis compared to control water ([1]; D5): increase by twice
11 | RPYYSNAPQEIF [0723.04] | 5.22 | 3.28 | 9 | 8.94 | 14.97 | 11.36 | –
12 | VLDLAIPVNRPGQL [SP2, glucose transport promoting fragment of Pea Protein P13918, Section C] | – | – | – | – | – | – | GLUT4 translocation (GLUT4; 0.2-2 μM, 3 hours): trend for SP2 to increase GLUT4 translocation; stimulatory effect on skeletal muscle GLUT4 translocation (GLUT4; conclusion of the experiment): trend for stimulatory effect
13 | VLLEQQEQEPQH [0723.05] | 8.8 | 6.34 | 6.61 | 6.26 | 9.48 | 3.08 | –
